Consider 20 compounds from BindingDB's records for doi:10.1021/bi00118a023 (University of Akron, 1992).

What is called pKi is −log10 of the Ki, conventionally taken in molar units. Low readings indicate a large Ki, high ones a small Ki.

For this assay, the target named is T1, Bifunctional aspartokinase/homoserine dehydrogenase 1 (Escherichia coli (strain K12), UniProt P00561).
T1 sequence (P00561 whole entry): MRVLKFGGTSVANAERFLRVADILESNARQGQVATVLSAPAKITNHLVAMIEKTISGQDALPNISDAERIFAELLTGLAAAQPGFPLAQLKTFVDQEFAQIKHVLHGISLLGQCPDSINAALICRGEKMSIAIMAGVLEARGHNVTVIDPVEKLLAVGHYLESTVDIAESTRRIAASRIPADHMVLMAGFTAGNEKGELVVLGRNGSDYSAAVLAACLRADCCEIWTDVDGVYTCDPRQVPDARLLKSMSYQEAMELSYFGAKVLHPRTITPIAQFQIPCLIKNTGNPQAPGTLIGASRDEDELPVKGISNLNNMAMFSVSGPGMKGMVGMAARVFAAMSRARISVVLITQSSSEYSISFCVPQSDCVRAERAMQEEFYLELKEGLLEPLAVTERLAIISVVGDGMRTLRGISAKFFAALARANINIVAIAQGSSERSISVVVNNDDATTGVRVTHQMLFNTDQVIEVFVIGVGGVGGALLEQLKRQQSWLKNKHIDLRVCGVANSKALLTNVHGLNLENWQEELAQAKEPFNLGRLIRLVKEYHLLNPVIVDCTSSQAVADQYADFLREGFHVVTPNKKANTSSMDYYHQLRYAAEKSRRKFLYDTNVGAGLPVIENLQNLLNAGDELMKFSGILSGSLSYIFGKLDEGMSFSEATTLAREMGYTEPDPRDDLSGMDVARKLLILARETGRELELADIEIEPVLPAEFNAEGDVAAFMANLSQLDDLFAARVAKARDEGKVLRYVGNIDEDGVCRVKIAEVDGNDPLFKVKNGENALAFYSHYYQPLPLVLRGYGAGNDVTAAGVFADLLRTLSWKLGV
Briefly: Inhibition Assay. An excerpt:
Analogues of L-aspartic acid and beta-aspartyl phosphate were examined as inhibitors in the aspartokinase I reaction by using the coupled reaction with ASA-DH.

pKi: −log10 of the molar value.

For the compound `CC(C)[C@H](N)C(=O)O` [L-Valine], the pKi was 1.49.

In turn, `NC(CC(=O)O)CC(=O)O` [3-Aminoglutarate] had a pKi of 1.35.

`COC(=O)C[C@H](N)C(=O)OC` [L-Aspartic dimethyl ester] gave a pKi of 1.15.

Compound `NC(CCP(=O)(O)O)C(=O)O` (stereo not drawn) [DL-2-amino-4-phosphonobutyrate] showed a pKi of 1.21.

For `N[C@@H](CCC(=O)O)C(=O)O` [L-Glutamic acid], the negative-log Ki (pKi) is 1.42.

In turn, `CCCC[C@H](N)C(=O)O` [L-norleucine] gave a pKi of 1.62.

In the case of `N[C@@H](CCOP(=O)(O)O)C(=O)O` [Homoserine phosphate], the pKi was 2.22.

The compound `N[C@@H](CC(=O)NO)C(=O)O` [D-aspartate-beta-hydroxamate] had a pKi of 1.80.

Take `NCC[C@H](N)C(=O)O` [2,4-Diaminobutanoate]: the negative-log Ki (pKi) was 2.00.

On to `N[C@@H](CN(O)N=O)C(=O)O` [L-Alanosine], for which the pKi is 2.12.

`N[C@@H](COP(=O)(O)O)C(=O)O` [O-phospho-L-serine]: the negative-log Ki (pKi) is 1.92.

In turn, `COC(=O)CC[C@H](N)C(=O)O` [L-glutamate gamma-methyl ester] gave a pKi of 1.62.

In turn, `CCC(N)C(=O)O` (stereo not given) [2-Aminobutyrate] showed a pKi of 2.30.

Regarding `NC(CCCP(=O)(O)O)C(=O)O` (stereo not drawn) [DL-2-Amino-5-phosphonovalerate], the negative-log Ki (pKi) was 2.08.

Compound `C[C@H](N)C(=O)O` [L-alanine] had a negative-log Ki (pKi) of 1.00.

Consider `NC(=O)C[C@@H](N)C(=O)O` [D-asparagine], for which the negative logarithm of the Ki (pKi) is 1.41.

`N[C@@H](CC(=O)O)C(=O)OCc1ccccc1` [D-aspartate alpha-benzyl ester] gave a negative-log Ki (pKi) of 1.96.

With `NC(C(=O)O)C(=O)O` [Aminomalonate], the pKi was 1.64.

Regarding `NCC(O)C(=O)O` (racemic) [DL-Isoserine], the pKi was 1.52.

`CCC[C@H](N)C(=O)O` [L-Norvaline] had a pKi of 2.51.
